Reference: US20090163461A1, “Ligand for Vesicular Acetylcholine Transporter” (priority 2005, published 2009)
Where two headings read alike, the source gives them in different places.

What was measured:
VAChT [1] = molecular target: T1, VAChT (Rattus norvegicus, UniProt Q62666); assay: biochemical
T1 sequence (Q62666 1-530): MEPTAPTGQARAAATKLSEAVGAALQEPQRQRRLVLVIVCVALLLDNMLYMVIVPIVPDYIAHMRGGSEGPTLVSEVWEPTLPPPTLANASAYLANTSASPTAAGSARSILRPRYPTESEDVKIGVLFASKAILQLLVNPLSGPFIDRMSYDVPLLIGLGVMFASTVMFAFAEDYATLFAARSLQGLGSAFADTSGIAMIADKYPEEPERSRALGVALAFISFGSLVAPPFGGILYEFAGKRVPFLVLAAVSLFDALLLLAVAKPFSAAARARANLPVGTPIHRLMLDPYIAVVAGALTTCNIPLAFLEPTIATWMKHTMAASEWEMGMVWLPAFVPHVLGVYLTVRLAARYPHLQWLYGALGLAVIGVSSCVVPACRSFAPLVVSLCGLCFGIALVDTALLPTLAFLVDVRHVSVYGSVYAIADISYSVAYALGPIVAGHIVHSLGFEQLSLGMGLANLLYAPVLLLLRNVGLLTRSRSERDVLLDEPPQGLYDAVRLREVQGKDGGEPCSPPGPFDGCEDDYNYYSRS
Experimental: (§1) The affinity of (−)-o-MeVES for VAChT and sigma receptors (σ-1, σ-2) was examined by in vitro drug inhibition experiments.
(§2) First, the brain and liver were extirpated from a rat, a 0.32 M sucrose solution in an amount by weight 10 times the weight of each tissue was added, and each tissue was ground using a Teflon homogenizer. Next, the ground tissue solution was centrifuged at 1000 g for 10 minutes, and the precipitated fraction was removed. Furthermore, the supernatant was centrifuged at 55000 g for 60 minutes, and the precipitated tissue was added to, and suspended in, 50 mM Tris-HCl buffer solution/0.32 M sucrose solution (pH 7.8).
For each test compound, samples at 10 different concentrations (concentrations set at 10 levels in the range of 10^−5 M to 10^−10 M) were prepared.
For each sample, the RI (100 μl), sample (50 μl), 50 mM Tris-HCl buffer solution (pH 7.8) (100 μl), 2 μM DTG solution (50 μl) (200 nM as the final concentration), and, finally, the prepared rat cerebral membrane (500-900 μg (protein weight)/200 μl) was added to a test tube, and they were reacted at 37° C. for 60 minutes. The test tube was cooled with ice to stop the reaction, and the rat cerebral membrane was immediately adsorbed to a glass filter using a cell harvester. After the glass filter was washed with 50 mM Tris-HCl buffer solution (pH 7.8) (5 ml) three times, the rat cerebral membrane, together with the glass filter, was placed in a liquid scintillation vial, and a liquid scintillator was added, after which radioactivity was measured using a liquid scintillation counter.
(§3) Ki=IC50/(1+C/Kd)(nM) formula

σ-2 receptor = molecular target: T2, σ-2 receptor (Rattus norvegicus, UniProt Q5U3Y7); assay: biochemical; assay type: binding
T2 construct: except that rat liver membranes (300-600 μg (protein weight)/200 μl) were used; from tissue; host or cells: rat liver membranes
T2 sequence (Q5U3Y7 1-176): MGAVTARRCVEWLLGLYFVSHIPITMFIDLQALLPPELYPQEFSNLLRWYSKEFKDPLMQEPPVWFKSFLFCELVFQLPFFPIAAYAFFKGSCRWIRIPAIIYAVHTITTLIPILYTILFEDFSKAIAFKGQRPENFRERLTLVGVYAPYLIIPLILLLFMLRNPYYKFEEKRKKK
Experimental: as §1, §2
3 nM [^3H]DTG ([^3H]-1,3-di-o-tolylguanidine) was used as the radioisotope (RI) for the σ-2 receptor. […] A test was performed in the same procedures as those for the test of affinity for the […] except that rat liver membranes (300-600 μg (protein weight)/200 μl) were used.
as §3

VAChT in the brain = molecular target: T3, VAChT in the brain (Rattus norvegicus, UniProt Q62666); assay: Inhibitory effects of non-radioactive ligands on cerebral distribution of (−)-[^11C]-o-methylvesamicol in rats; assay type: in vivo; conditions: 30 minutes; for local accumulation of (−)-[^11C]-o-MeVES in the brain, effect of co-administered non-radioactive ligand: 500 nmol per kg i.v.; for Radioactivity level (% ID/g) Blood / Radioactivity level (% ID/g) Brain (other than above) / Radioactivity level (% ID/g) Cerebellum / Radioactivity level (% ID/g) Cerebral cortex / Radioactivity level (% ID/g) Hippocampus / Radioactivity level (% ID/g) Medulla oblongata / Radioactivity level (% ID/g) Striate body / Radioactivity level (% ID/g) Brain (whole): tracer (−)-[^11C]-o-MeVES 20 MBq i.v. together with ligand 500 nmol per kg, mean ± S.D. n = 4-6
T3 construct: from tissue; host or cells: brain of living rats, tissue counted or sectioned after killing
T3 sequence (Q62666 1-530): T1 sequence (Q62666 1-530)
Experimental: To the caudal vein of each rat, an injection (0.1 ml) containing 20 MBq of (−)-[^11C]-o-MeVES and 0.1 ml (equivalent to 500 nmol per kg body weight) of a DMSO solution containing each of the above-described non-radioactive ligands were administered together. Thirty minutes after the administration, the rats were killed by cervical dislocation, and blood was drawn from the heart using a syringe, after which the brain was extirpated from each rat. The extirpated brain was divided into the cerebral cortex, hippocampus, striate body, cerebellum, medulla oblongata, and other parts, and the radioactivity in each tissue was measured using a gamma counter. Each tissue was also weighed.
For control, an injection (0.1 ml) containing 20 MBq of (−)-[^11C]-o-MeVES and a ligand-free DMSO solution (0.1 ml) were administered to the caudal vein of each rat, and measurements were taken in the same manner as described above.

δ-2 receptor = molecular target: T4, δ-2 receptor (Rattus norvegicus, UniProt Q5U3Y7); conditions: in vitro, rat brain; mean±standard deviation; Life Sciences 71 (2002) 1591-1598; read-out: Ki value, affinity for δ-2 receptor; cited from earlier work
T4 construct: as a result of in vitro experiments using the rat brain
T4 sequence (Q5U3Y7 1-176): T2 sequence (Q5U3Y7 1-176)

VAChT [2] = molecular target: T1, VAChT; set-up: the brain and liver were extirpated from a rat; from tissue; host or cells: rat brain (cerebral membranes); conditions: in vitro, rat brain; mean±standard deviation; Life Sciences 71 (2002) 1591-1598; read-out: Ki value, affinity for VAChT; cited from earlier work
δ-1 receptor = molecular target: T5, δ-1 receptor (Rattus norvegicus, UniProt Q9R0C9); conditions: in vitro, rat brain; mean±standard deviation; Life Sciences 71 (2002) 1591-1598; read-out: Ki value, affinity for δ-1 receptor; cited from earlier work
T5 construct: as a result of in vitro experiments using the rat brain; host or cells: rat brain
T5 sequence (Q9R0C9 whole entry): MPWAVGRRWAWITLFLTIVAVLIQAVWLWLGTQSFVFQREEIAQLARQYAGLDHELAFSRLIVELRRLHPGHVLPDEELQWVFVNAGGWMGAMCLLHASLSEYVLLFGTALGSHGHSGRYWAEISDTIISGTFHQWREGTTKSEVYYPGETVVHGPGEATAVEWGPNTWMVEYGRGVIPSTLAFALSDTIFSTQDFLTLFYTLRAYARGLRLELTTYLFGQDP

σ-1 receptor = σ-1 receptor (Rattus norvegicus, UniProt Q9R0C9); assay: biochemical
Sequence of σ-1 receptor (Q9R0C9 whole entry): as above
Experimental: as §1, §2, §3

[3] = compared with (−)-o-iodovesamicol

Row | SMILES | IC50 (VAChT [1]) [µM] | Ki (VAChT [1]) [µM] | IC50 (σ-2 receptor) [µM] | Ki (σ-2 receptor) [µM] | local accumulation of (−)-[^11C]-o-MeVES in the brain, effect of co-administered non-radioactive ligand (VAChT in the brain) | Radioactivity level (% ID/g) Blood (VAChT in the brain) [% ID/g] | Radioactivity level (% ID/g) Brain (other than above) (VAChT in the brain) [% ID/g] | Radioactivity level (% ID/g) Cerebellum (VAChT in the brain) [% ID/g] | Radioactivity level (% ID/g) Cerebral cortex (VAChT in the brain) [% ID/g] | Radioactivity level (% ID/g) Hippocampus (VAChT in the brain) [% ID/g] | Radioactivity level (% ID/g) Medulla oblongata (VAChT in the brain) [% ID/g] | Radioactivity level (% ID/g) Striate body (VAChT in the brain) [% ID/g] | Radioactivity level (% ID/g) Brain (whole) (VAChT in the brain) [% ID/g] | further results
1 | OC1CCCCC1N1CCC(c2ccccc2)CC1 (single isomer, unassigned; (-)) [(−)-Vesamicol, 2-(4-Phenylpiperidino)-cyclohexanol] | 0.013 | 0.0044 ± 0.0006 | 0.42 | 0.346 ± 0.037 | inhibited | 0.13 ± 0.01 | 0.69 ± 0.04 | 0.62 ± 0.03 | 0.71 ± 0.04 | 0.66 ± 0.05 | 0.80 ± 0.08 | 0.72 ± 0.03 | 0.70 ± 0.04 | –
2 | OC1CCCCC1N1CCC(c2ccccc2I)CC1 (single isomer, unassigned; (-)) [(−)-o-iodovesamicol] | – | – | – | – | – | – | – | – | – | – | – | – | – | Ki (δ-2 receptor): 0.554 ± 0.137 µM; Ki (VAChT [2]): 0.015 ± 0.0029 µM; Ki (δ-1 receptor): 0.0622 ± 0.012 µM
3 | COc1ccc(CCN2CCN(CCCc3ccccc3)CC2)cc1OC [SA4503, 1-(3,4-dimethoxyphenethyl)-4-(3-phenyl-propyl)piperazine] | 0.12 | 0.0502 ± 0.0072 | 0.28 | 0.242 ± 0.017 | inhibited | 0.14 ± 0.02 | 0.55 ± 0.05 | 0.52 ± 0.07 | 0.62 ± 0.08 | 0.84 ± 0.18 | 0.66 ± 0.08 | 0.61 ± 0.07 | 0.59 ± 0.07 | –
4 | Cc1ccccc1C1CCN(C2CCCCC2O)CC1 (single isomer, unassigned; (-)) [(−)-o-MeVES, (−)-2-(4-(2-methylphenyl)piperidino)cyclohexanol] | 0.016 | 0.0067 ± 0.0004 | 0.32 | 0.266 ± 0.028 | inhibited | 0.14 ± 0.02 | 0.63 ± 0.10 | 0.60 ± 0.07 | 0.70 ± 0.10 | 0.71 ± 0.08 | 0.74 ± 0.09 | 0.71 ± 0.10 | 0.68 ± 0.10 | IC50 (σ-1 receptor): 0.038 µM; Ki (σ-1 receptor): 0.0337 ± 0.0059 µM; 6-1 receptor/VAChT ratio of the Ki values (VAChT [1]; [3]): higher; 6-2 receptor/VAChT ratio of the Ki values (VAChT [1]; [3]): higher; melting point: 116 to 118 °C
5 | CC(C)=CCN1CCC2(C)c3cc(O)ccc3CC1C2C (single isomer, unassigned; (+)) [(+)-Pentazocine, (+)-pentazocine] | 0.83 | 0.315 ± 0.121 | – | – | not inhibited | 0.12 ± 0.01 | 2.52 ± 0.43 | 2.07 ± 0.31 | 2.72 ± 0.40 | 2.59 ± 0.44 | 2.83 ± 0.45 | 2.39 ± 0.40 | 2.52 ± 0.40 | –
